Legend:
IKKε = IKKε (Homo sapiens (Human), UniProt Q14164); assay: TR-FRET kinase assay, IKKε; type: biochemical; conditions: full length recombinant IKKε 0.3 nM, 2x Km ATP, 1 μM peptide, 240 min at 25° C.; geometric mean of minimum four determinations
Source text: Biological Assay for TBK1 and IKKs:

TBK1 = TBK1 (Homo sapiens (Human), UniProt Q9UHD2); assay: TR-FRET kinase assay, TBK1; conditions: read-out: TBK1-IC50; full length recombinant TBK1 2.5 nM, 2x Km ATP, 1 μM peptide, 240 min at 25° C.; geometric mean of minimum four determinations
Chain of TBK1 (Q9UHD2 whole entry): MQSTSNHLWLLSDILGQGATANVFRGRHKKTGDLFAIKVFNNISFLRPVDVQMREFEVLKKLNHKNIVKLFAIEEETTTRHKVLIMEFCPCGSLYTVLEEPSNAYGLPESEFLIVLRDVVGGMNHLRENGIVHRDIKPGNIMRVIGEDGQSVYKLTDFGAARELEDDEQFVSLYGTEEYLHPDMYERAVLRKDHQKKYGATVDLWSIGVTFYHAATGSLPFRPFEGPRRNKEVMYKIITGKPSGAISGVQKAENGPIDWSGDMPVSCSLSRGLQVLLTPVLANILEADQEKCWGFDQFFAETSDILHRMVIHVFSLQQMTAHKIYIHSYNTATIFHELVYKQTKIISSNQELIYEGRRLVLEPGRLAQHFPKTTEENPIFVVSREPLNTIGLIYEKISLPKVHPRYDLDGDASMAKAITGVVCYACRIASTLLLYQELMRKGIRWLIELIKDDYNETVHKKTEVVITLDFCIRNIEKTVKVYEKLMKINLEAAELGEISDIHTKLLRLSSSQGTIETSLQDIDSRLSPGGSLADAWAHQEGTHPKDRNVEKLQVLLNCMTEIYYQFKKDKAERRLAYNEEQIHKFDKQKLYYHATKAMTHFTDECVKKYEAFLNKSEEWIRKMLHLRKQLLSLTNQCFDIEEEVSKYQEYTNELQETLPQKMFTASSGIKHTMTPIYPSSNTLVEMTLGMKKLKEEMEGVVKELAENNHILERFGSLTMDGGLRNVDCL

Chain of IKKε (Q14164 whole entry): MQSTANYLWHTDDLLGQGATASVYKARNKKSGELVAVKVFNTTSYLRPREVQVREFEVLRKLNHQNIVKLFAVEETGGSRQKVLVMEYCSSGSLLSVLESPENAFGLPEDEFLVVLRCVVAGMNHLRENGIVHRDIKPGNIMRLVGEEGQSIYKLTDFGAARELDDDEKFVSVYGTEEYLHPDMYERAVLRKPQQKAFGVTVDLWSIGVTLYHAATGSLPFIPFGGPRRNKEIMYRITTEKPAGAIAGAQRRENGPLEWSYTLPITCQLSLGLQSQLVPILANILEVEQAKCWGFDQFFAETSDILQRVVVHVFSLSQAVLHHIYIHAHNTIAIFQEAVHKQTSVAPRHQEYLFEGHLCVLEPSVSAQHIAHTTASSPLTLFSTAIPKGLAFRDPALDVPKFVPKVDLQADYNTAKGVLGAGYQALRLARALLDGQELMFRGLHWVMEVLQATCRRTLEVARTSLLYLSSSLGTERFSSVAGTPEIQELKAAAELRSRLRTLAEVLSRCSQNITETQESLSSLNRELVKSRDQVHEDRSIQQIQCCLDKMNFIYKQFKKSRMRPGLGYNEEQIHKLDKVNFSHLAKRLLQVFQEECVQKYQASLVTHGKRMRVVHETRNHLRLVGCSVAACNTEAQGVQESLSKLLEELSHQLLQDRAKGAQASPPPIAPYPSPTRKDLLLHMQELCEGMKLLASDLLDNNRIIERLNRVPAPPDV

SMILES | IC50 (IKKε) [nM] | IC50 (TBK1) [nM]
N#Cc1cc(-c2ncnc3[nH]c(-c4ccc(C(=O)NC5COC5)cc4)cc23)ccc1OC1CCN(C(=O)CO)CC1 [Example 163, 4-(4-(3-Cyano-4-((1-(2-hydroxyacetyl)piperidin-4-yl)oxy)phenyl)-7H-pyrrolo[2,3-d]pyrimidin-6-yl)-N-(oxetan-3-yl)benzamide] | 1.8 | 1.78
C[C@@H](O)C(=O)N1CC[C@@H](Oc2ccc(-c3ncnc4[nH]c(-c5ccc(N6CCOCC6)cc5)nc34)cc2C#N)C1 [Example 209, 2-(((R)-1-((R)-2-hydroxypropanoyl)pyrrolidin-3-yl)oxy)-5-(8-(4-morpholinophenyl)-9H-purin-6-yl)benzonitrile] | 58.7 | 13.1
O=C1NCc2cc(-c3ncnc4[nH]c(-c5ccc(N6CCOCC6)cc5)cc34)ccc21 [Example 221, 5-(6-(4-morpholinophenyl)-7H-pyrrolo[2,3-d]pyrimidin-4-yl)isoindolin-1-one] | 1000 | 1000
N#Cc1cc(-c2ncnc3[nH]c(-c4ccc(CN5CCOCC5)cc4)nc23)ccc1OC1CCN(C(=O)C(F)F)CC1 [Example 266, 2-((1-(2,2-difluoroacetyl)piperidin-4-yl)oxy)-5-(8-(4-(morpholinomethyl)phenyl)-9H-purin-6-yl)benzonitrile] | 7.95 | 8.87
CC(C)(O)c1ccc(-c2nc3c(-c4ccc(OC5CCOCC5)c(C#N)c4)ncnc3[nH]2)cc1 [Example 228, 5-(8-(4-(2-hydroxypropan-2-yl)phenyl)-9H-purin-6-yl)-2-((tetrahydro-2H-pyran-4-yl)oxy)benzonitrile] | 14.5 | 1.62
N#Cc1cc(-c2ccnc3[nH]c(C4=CCNCC4)cc23)ccc1OC1CCOCC1 [Example 5, 2-((tetrahydro-2H-pyran-4-yl)oxy)-5-(2-(1,2,3,6-tetrahydropyridin-4-yl)-1H-pyrrolo[2,3-b]pyridin-4-yl)benzonitrile] | 39.7 | 29.8
COc1ccc(-c2cc3c(-c4ccc(OC5CCNCC5)c(C#N)c4)ncnc3[nH]2)cc1 [Example 123, 5-(6-(4-methoxyphenyl)-7H-pyrrolo[2,3-d]pyrimidin-4-yl)-2-(piperidin-4-yloxy)benzonitrile] | 65.8 | 22.4
COc1cc(-c2cc3c(-c4ccc(OC5CCS(=O)(=O)CC5)c(C#N)c4)ncnc3[nH]2)ccc1N1CCN(C2COC2)CC1 [Example 139, 2-((1,1-dioxidotetrahydro-2H-thiopyran-4-yl)oxy)-5-(6-(3-methoxy-4-(4-(oxetan-3-yl)piperazin-1-yl)phenyl)-7H-pyrrolo[2,3-d]pyrimidin-4-yl)benzonitrile] | 25 | 3.68
N#Cc1cc(-c2ncnc3[nH]c(-c4ccc(C(=O)N5CCCC5)cc4)cc23)ccc1OC1CCN(C(=O)CO)CC1 [Example 162, 2-((1-(2-Hydroxyacetyl)piperidin-4-yl)oxy)-5-(6-(4-(pyrrolidine-1-carbonyl)phenyl)-7H-pyrrolo[2,3-d]pyrimidin-4-yl)benzonitrile] | 2.68 | 1.48

More lines, now with the values ahead:

IC50 (IKKε) [nM] | IC50 (TBK1) [nM] | SMILES
140 | 31.1 | N#Cc1cc(-c2ncnc3[nH]c(-c4ccc(N5CCOCC5)cc4)cc23)ccc1OC1CCNCC1 [Example 218, 5-(6-(4-morpholinophenyl)-7H-pyrrolo[2,3-d]pyrimidin-4-yl)-2-(piperidin-4-yloxy)benzonitrile]
1.03 | 0.644 | N#Cc1cc(-c2ncnc3[nH]c(-c4ccc(N5CCNCC5)cc4)cc23)ccc1OC1CCOCC1 [Example 200, 5-(6-(4-(piperazin-1-yl)phenyl)-7H-pyrrolo[2,3-d]pyrimidin-4-yl)-2-((tetrahydro-2H-pyran-4-yl)oxy)benzonitrile]
9.9 | 4.1 | N#Cc1cc(-c2ccnc3[nH]c(-c4ccc(N5CCOCC5)nc4)cc23)ccc1OC1CCOCC1 [Example 81, 5-(2-(6-morpholinopyridin-3-yl)-1H-pyrrolo[2,3-b]pyridin-4-yl)-2-((tetrahydro-2H-pyran-4-yl)oxy)benzonitrile]
195 | 51.1 | CC(=O)N1CC(Oc2ccc(-c3ccnc4[nH]c(-c5ccc(N6CCOCC6)cc5)cc34)cc2C#N)C1 [Example 153, 2-((1-acetylazetidin-3-yl)oxy)-5-(2-(4-morpholinophenyl)-1H-pyrrolo[2,3-b]pyridin-4-yl)benzonitrile]
10.8 | 3.2 | N#Cc1cc(-c2ccnc3[nH]c(-c4ccc(N5CCOCC5)cc4)nc23)ccc1OC1CCOCC1 [Example 305, 5-(2-(4-morpholinophenyl)-3H-imidazo[4,5-b]pyridin-7-yl)-2-((tetrahydro-2H-pyran-4-yl)oxy)benzonitrile]
10.7 | 10.1 | N#Cc1cc(-c2ccnc3[nH]c(-c4cccc(CN5CCOCC5)c4)cc23)ccc1OC1CCOCC1 [Example 39, 5-(2-(3-(morpholinomethyl)phenyl)-1H-pyrrolo[2,3-b]pyridin-4-yl)-2-((tetrahydro-2H-pyran-4-yl)oxy)benzonitrile]
11.7 | 2.26 | N#CCC(=O)N1CC[C@@H](Oc2ccc(-c3ncnc4[nH]c(-c5ccc(N6CCOCC6)cc5)cc34)cc2C#N)C1 [Example 107, (R)-2-((1-(2-cyanoacetyl)pyrrolidin-3-yl)oxy)-5-(6-(4-morpholinophenyl)-7H-pyrrolo[2,3-d]pyrimidin-4-yl)benzonitrile]
85 | 19.6 | N#Cc1cc(-c2ncnc3[nH]c(-c4ccc(N5CCOCC5)cc4)cc23)ccc1CN1CCOCC1 [Example 112, 2-(morpholinomethyl)-5-(6-(4-morpholinophenyl)-7H-pyrrolo[2,3-d]pyrimidin-4-yl)benzonitrile]
> 1000 | 696 | CC(C)(C)OC(=O)N1CCC(Oc2ccc(-c3ccnc4[nH]c(-c5ccc(N6CCOCC6)cc5)cc34)cc2C#N)CC1 [Example 21, tert-butyl 4-(2-cyano-4-(2-(4-morpholinophenyl)-1H-pyrrolo[2,3-b]pyridin-4-yl)phenoxy)piperidine-1-carboxylate]
2.45 | 1.34 | N#Cc1cc(-c2ccnc3[nH]c(-c4ccc(N5CCOCC5)cc4)cc23)ccc1O[C@@H]1CCN(C(=O)CO)C1 [Example 15, (R)-2-((1-(2-hydroxyacetyl)pyrrolidin-3-yl)oxy)-5-(2-(4-morpholinophenyl)-1H-pyrrolo[2,3-b]pyridin-4-yl)benzonitrile]
20.7 | 3.1 | N#Cc1cc(-c2ccnc3[nH]c(C4=CCC5(CC4)OCCO5)cc23)ccc1OC1CCOCC1 [Example 180, 5-(2-(1,4-dioxaspiro[4.5]dec-7-en-8-yl)-1H-pyrrolo[2,3-b]pyridin-4-yl)-2-((tetrahydro-2H-pyran-4-yl)oxy)benzonitrile]
29.7 | 11.4 | N#Cc1cc(-c2ccnc3[nH]c(-c4ccc(C(=O)C(F)(F)F)cc4)cc23)ccc1OC1CCOCC1 [Example 237, 2-((tetrahydro-2H-pyran-4-yl)oxy)-5-(2-(4-(2,2,2-trifluoroacetyl)phenyl)-1H-pyrrolo[2,3-b]pyridin-4-yl)benzonitrile]
19 | 4.94 | N#Cc1cc(-c2ncnc3[nH]c(-c4ccc(N5CCOCC5)cc4)cc23)ccc1O[C@@H]1CCNC1 [Example 106, (R)-5-(6-(4-morpholinophenyl)-7H-pyrrolo[2,3-d]pyrimidin-4-yl)-2-(pyrrolidin-3-yloxy)benzonitrile]

— patent US10072001B2, “Tank-binding kinase inhibitor compounds” (Gilead Sciences, Inc., priority 2014, dated 2018)
